Reference: patent US12378248B2 (The United States of America, as represented by the …, priority 2018, dated 2025)
Substitutions are numbered along the chain they refer to.

Columns and labels:
[1] = biological target: T1, hA3AR (Homo sapiens, UniProt P0DMS8); assay: Radioligand binding in membranes of CHO cells expressing hA3AR; settings: read-out: A3AR % inhibition or Ki; for Ki: (h)
T1 construct: expressed in transfected cells; host or cells: CHO
T1 sequence (P0DMS8 1-318): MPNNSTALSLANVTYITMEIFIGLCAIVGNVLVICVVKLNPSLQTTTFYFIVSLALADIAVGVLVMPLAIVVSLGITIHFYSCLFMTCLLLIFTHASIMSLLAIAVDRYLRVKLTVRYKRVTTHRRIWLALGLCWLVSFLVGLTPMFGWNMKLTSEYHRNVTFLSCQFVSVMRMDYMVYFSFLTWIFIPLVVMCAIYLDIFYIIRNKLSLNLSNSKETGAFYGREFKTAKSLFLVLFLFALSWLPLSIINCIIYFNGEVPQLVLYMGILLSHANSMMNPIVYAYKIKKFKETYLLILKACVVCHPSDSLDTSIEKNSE

[2] = biological target: T2, mA3AR (Mus musculus, UniProt Q61618); assay: Guanine nucleotide ([35S]GTPγS) binding assay; format: biochemical; settings: effect of 10 μM test compound as % of 10 μM 16
T2 sequence (Q61618 1-319): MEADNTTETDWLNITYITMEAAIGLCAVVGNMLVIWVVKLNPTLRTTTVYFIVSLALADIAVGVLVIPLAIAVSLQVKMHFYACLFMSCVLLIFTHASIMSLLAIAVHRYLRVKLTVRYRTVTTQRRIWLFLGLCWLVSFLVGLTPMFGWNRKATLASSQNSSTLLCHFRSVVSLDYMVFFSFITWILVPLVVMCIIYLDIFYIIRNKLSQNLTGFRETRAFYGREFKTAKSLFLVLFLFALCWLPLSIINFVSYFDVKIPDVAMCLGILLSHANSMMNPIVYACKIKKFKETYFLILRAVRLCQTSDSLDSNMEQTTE
Experimental: (§1) cLogP was calculated using ChemDraw Professional, v. 16.0. Binding selectivity for mA1Ar is expressed in terms of fold, compared to mA3AR (Data from Table 1).

[3] = test system: wild-type C57BL/6J mice; assay: Hypothermia (Tb by telemetry) after ip dosing; format: in vivo, mouse; settings: for Tb (° C.): average from dosing to 60 min, mean±SD
Experimental: (§2) Compounds were dosed ip. Tb and activity were measured by telemetry and the averages from dosing to 60 min were calculated. […] Data are for the highest dose used and are mean±SD from 3 to 22 mice/group (usually 5-7). P values are unpaired t-Test vs vehicle-treated controls assayed simultaneously. Vehicle data are mean±SD from all (n=83) vehicle treated mice.

[4] = test system: wild-type C57BL/6J mice; assay: Locomotor activity by telemetry after ip dosing; format: in vivo, mouse; settings: average from dosing to 60 min, mean±SD
Experimental: as §2

[5] = Plasma protein binding at 10 μM; format: in vitro ADME, human; settings: unbound percent ± standard deviation
Experimental: (§3) Plasma protein binding in human plasma, mouse plasma, and rat plasma was determined. Verapamil and warfarin served as positive controls. The results are expressed as unbound percent±standard deviation.

[6] = Plasma protein binding at 10 μM; format: in vitro ADME, mouse; settings: unbound percent ± standard deviation
Experimental: as §3

[7] = Plasma protein binding at 10 μM; format: in vitro ADME, rat; settings: unbound percent ± standard deviation
Experimental: as §3

[8] = biological target: T3, hA1AR (Homo sapiens, UniProt P30542); assay: Radioligand binding in membranes of CHO cells expressing hA1AR, [3H]N6-R-phenylisopropyladenosine; settings: (h); Ki; read-out: A1AR % inhibition or Ki
T3 construct: expressed in transfected cells; host or cells: CHO
T3 sequence (P30542 1-326): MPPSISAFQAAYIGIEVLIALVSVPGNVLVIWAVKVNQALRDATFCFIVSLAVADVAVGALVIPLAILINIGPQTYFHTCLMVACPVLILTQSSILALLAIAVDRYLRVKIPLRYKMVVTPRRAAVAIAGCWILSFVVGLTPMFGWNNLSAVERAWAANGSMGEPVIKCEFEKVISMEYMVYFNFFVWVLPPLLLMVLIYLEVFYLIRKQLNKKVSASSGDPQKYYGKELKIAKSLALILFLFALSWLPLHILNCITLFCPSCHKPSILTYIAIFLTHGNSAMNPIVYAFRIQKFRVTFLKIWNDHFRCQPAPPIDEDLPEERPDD

[9] = biological target: T4, rA1AR (Rattus norvegicus, UniProt P25099); assay: Adenosine receptor binding, rA1AR; settings: (r), read-out: A1AR % inhibition or Ki (converted)
T4 sequence (P25099 1-326): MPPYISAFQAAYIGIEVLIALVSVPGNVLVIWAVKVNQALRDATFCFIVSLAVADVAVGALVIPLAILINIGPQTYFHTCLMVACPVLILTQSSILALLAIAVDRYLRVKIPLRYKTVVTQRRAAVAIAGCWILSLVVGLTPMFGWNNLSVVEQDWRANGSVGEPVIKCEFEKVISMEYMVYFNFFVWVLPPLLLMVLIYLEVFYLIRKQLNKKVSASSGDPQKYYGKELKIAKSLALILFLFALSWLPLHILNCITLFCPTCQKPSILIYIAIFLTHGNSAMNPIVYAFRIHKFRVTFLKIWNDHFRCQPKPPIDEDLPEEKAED

[10] = biological target: T5, hA2AAR (Homo sapiens, UniProt P29274); assay: Radioligand binding in membranes of HEK293 cells expressing hA2AAR; settings: read-out: A2AAR % inhibition
T5 construct: expressed in transfected cells; host or cells: HEK293
T5 sequence (P29274 whole entry): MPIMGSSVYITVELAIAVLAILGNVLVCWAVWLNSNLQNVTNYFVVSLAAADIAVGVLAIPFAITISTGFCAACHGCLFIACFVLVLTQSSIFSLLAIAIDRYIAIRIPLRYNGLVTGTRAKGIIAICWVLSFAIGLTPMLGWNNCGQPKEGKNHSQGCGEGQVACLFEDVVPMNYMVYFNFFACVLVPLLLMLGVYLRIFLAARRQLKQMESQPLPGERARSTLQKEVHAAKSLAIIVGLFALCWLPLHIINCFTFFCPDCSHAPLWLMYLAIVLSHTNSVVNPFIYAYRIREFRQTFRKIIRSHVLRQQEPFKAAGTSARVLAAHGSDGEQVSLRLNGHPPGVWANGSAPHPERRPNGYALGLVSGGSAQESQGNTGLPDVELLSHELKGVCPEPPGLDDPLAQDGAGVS

[11] = test system: off-target receptors (PDSP); assay: Off-target interactions determined by the PDSP, whole screen; format: binding, human; settings: no off-target interaction listed
[12] = biological target: T6, mA1AR (Mus musculus, UniProt Q60612); assay: Adenosine receptor binding, mA1AR; settings: for Ki: (m), read-out: A1AR % inhibition or Ki (converted)
T6 sequence (Q60612 1-326): T4 sequence (P25099 1-326) with V151E, D155A, R157I, D316E, L319I, E325D

[13] = biological target: mA2AAR (Mus musculus, UniProt Q60613); assay: Adenosine receptor binding, mA2AAR; settings: read-out: A2AAR % inhibition (converted)
Chain of mA2AAR (Q60613 whole entry): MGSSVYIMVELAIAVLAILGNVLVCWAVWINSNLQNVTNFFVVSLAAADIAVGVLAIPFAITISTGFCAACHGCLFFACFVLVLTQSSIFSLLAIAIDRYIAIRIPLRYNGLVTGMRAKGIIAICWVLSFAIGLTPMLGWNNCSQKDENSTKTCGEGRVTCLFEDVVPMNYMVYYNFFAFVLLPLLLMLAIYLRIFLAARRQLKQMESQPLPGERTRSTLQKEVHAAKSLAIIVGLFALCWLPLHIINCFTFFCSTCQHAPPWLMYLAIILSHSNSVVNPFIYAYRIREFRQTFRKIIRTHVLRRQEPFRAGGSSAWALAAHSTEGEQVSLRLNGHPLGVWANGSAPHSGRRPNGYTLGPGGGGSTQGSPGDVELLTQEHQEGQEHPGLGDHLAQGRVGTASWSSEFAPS

[14] = biological target: T2, mA3AR; assay: Adenosine receptor binding, mA3AR
[15] = biological target: T6, mA1AR; assay: Guanine nucleotide ([35S]GTPγS) binding assay; format: biochemical
Experimental: as §1

[16] = biological target: dopamine transporter (DAT) (Homo sapiens, UniProt Q01959); assay: Off-target interaction determined by the PDSP; format: binding; settings: read-out: Off-target, receptor (h, unless noted) (Ki, μM): DAT
Chain of dopamine transporter (DAT) (Q01959 whole entry): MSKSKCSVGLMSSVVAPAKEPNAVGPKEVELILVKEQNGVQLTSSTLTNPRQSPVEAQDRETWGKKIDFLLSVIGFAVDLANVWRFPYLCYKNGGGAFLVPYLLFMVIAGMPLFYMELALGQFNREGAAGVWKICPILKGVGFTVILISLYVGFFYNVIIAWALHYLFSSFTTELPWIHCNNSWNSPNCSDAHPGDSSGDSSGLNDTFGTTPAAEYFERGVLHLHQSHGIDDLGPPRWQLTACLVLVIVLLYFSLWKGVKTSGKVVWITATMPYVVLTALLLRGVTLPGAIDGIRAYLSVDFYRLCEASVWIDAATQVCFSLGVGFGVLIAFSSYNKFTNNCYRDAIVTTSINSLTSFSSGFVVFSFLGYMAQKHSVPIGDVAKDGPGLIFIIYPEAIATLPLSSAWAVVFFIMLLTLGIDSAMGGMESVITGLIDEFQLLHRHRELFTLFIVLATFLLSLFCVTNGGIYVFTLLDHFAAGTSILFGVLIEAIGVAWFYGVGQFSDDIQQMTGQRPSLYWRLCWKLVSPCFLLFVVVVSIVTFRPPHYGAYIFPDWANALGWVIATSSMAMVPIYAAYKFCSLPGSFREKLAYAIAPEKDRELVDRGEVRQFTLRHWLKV

[17] = biological target: sigma receptor σ2 (UniProt Q5BJF2); assay: Off-target interaction determined by the PDSP; format: binding, human; settings: read-out: Off-target, receptor (h, unless noted) (Ki, μM): σ2
[18] = biological target: T7, serotonin receptor 5HT2C (Homo sapiens, UniProt P28335); assay: Off-target interaction determined by the PDSP; format: binding; settings: read-out: Off-target, receptor (h, unless noted) (Ki, μM): 5HT2C
T7 sequence (P28335 33-458): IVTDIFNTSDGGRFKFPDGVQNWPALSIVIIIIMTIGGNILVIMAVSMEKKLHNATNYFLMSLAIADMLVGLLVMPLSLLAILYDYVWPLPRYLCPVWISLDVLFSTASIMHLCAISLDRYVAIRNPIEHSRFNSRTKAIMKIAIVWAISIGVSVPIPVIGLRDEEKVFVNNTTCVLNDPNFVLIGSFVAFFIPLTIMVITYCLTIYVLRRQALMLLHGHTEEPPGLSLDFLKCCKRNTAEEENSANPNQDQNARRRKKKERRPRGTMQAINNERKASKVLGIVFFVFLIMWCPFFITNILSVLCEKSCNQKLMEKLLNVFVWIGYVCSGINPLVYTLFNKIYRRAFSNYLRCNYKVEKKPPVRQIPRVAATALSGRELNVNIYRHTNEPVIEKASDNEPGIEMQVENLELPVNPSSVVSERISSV

[19] = biological target: serotonin receptor 5HT2B (Homo sapiens, UniProt P41595); assay: Off-target interaction determined by the PDSP; format: binding; settings: read-out: Off-target, receptor (h, unless noted) (Ki, μM): 5HT2B
Chain of serotonin receptor 5HT2B (P41595 whole entry): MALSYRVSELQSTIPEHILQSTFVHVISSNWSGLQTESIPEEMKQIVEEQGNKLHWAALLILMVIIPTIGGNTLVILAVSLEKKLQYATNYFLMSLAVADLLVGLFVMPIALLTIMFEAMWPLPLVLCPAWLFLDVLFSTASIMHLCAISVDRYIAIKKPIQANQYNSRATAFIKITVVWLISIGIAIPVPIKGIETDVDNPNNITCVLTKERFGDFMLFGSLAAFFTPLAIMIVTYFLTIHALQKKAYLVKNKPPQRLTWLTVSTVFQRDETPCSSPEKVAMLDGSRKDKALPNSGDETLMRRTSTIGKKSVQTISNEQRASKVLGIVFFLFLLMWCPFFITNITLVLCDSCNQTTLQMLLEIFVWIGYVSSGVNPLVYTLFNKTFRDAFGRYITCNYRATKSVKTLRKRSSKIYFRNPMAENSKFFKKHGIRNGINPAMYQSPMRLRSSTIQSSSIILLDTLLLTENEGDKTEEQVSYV

[20] = test system: mice; assay: Tail suspension test, immobility time; format: in vivo, mouse; settings: 3, 10 or 20 mg/kg i.p.
Experimental: 1 hour after administration of compounds, the mice were individually suspended by their tails for 6 minutes, and the average amount of time the mice were immobile was determined. […]

[21] = Stability in simulated gastric fluid; format: physicochemical; settings: pH 1.60, 37° C., after 120 min

| SMILES | Ki [1] | Emax at 10 µM [2] | human, % free [5] | mouse, % free [6] | rat, % free [7] | Ki [8] | Off-target, receptor (h, unless noted) [11] | inhibition at 10 µM [10] | further results |
| --- | --- | --- | --- | --- | --- | --- | --- | --- | --- |
| OC[C@H]1O[C@@H](n2cnc3c(NC(C4CCC4)C4CCC4)ncnc32)[C@H](O)C1O (stereo in doubt) [Compound 9, (2R,3R,4R,5R)-2-(6-((Dicyclobutylmethyl)amino)-9H-purin-9-yl)-5-(hydroxymethyl)tetrahydrofuran-3,4-diol] | 10600 nM | 70 ± 9% | 6.05 ± 1.60% | 20.6 ± 1.2% | 14.6 ± 0.01% | – | – | – | ARs causing hypothermia ([3]; 3 mg/kg ip, WT and AR-KO mice (FIG. 2)): A1AR selective; Tb (° C.) ([3]; 3 mg/kg ip): 33.0 ± 0.7 °C; Activity (counts) ([4]; 3 mg/kg ip): 6.6 ± 2.3 counts |
| CNC(=O)[C@H]1O[C@@H](n2cnc3c(N)ncnc32)[C@H](O)[C@@H]1O [Compound 15, reference compound] | 24.4 nM | – | – | – | – | 36.7 nM | none | – | Ki [9]: 84 nM; Ki ([10]; (h), values without % sign (Ki)): 466 ± 95 nM |
| Nc1nc(Cl)nc2c1ncn2[C@H]1[C@H](O)[C@H](O)[C@]2(CO)C[C@H]12 [Compound 21] | – | – | – | – | – | – | none | – | Ki [9]: 273 nM |
| OC[C@@]12C[C@@H]1[C@@H](n1cnc3c(N[C@H]4C[C@H]5CC[C@@H]4C5)nc(Cl)cc31)[C@H](O)[C@@H]2O [Compound 30, (1R,2R,3S,4R,5S)-4-(4-(((1R,2S,4S)-Bicyclo[2.2.1]heptan-2-yl)amino)-6-chloro-1H-imidazo[4,5-c]pyridin-1-yl)-1-(hydroxymethyl)bicyclo[3.1.0]hexane-2,3-diol] | 145 ± 74 nM | – | – | – | – | 240 ± 19 nM | none | 29 ± 13% | – |
| O[C@H]1[C@H](n2cnc3c(N[C@H]4C[C@H]5CC[C@@H]4C5)nc(Cl)nc32)[C@H]2C[C@@]2(CCl)[C@H]1O [Compound 31, (1S,2R,3S,4R,5S)-4-(6-(((1R,2S,4S)-Bicyclo[2.2.1]heptan-2-yl)amino)-2-chloro-9H-purin-9-yl)-1-(chloromethyl)bicyclo[3.1.0]hexane-2,3-diol] | 456 ± 201 nM | 50 ± 11% | 4.04 ± 0.60% | 2.95 ± 0.84% | 2.53 ± 0.45% | 44.8 ± 1.3 nM | none | 54 ± 8% | Ki [12]: 1.86 nM; Binding selectivity for mA1AR ([12]; compared to mA3AR): (270) fold; inhibition at 10 µM [13]: 15%; Ki ([14]; (m), Ki, read-out: A3AR % inhibition or Ki (converted)): 503 nM; Emax at 10 µM [15]: 123 ± 16%; Tb (° C.) ([3]; 3 mg/kg ip): 36.6 ± 0.5 °C; Activity (counts) ([4]; 3 mg/kg ip): 16.8 ± 3.6 counts |
| NC(=O)c1ncn([C@H]2[C@H](O)[C@H](O)[C@]3(CO)C[C@H]23)n1 [Compound 40, 1-((1S,2R,3S,4R,5R)-3,4-Dihydroxy-5-(hydroxymethyl)bicyclo[3.1.0]hexan-2-yl)-1H-1,2,4-triazole-3-carboxamide] | – | 31 ± 3% | > 80% | > 80% | > 80% | 495 ± 35 nM | – | 11 ± 3% | selectivity ratio [12]: 400; Ki [12]: 25.2 ± 2.8 nM; inhibition at 10 µM [1]: 41 ± 6%; inhibition at 10 µM ([14]; read-out: A3AR % inhibition or Ki): 47 ± 2%; Ki [16]: 6.61 µM; Ki [17]: 2.09 µM; Ki [18]: 2.35 µM; Ki [19]: 1.91 µM; Tb (° C.) ([3]; 10 mg/kg ip): 35.7 ± 0.7 °C; Activity (counts) ([4]; 10 mg/kg ip): 19.1 ± 5.3 counts |
| O[C@@H]1[C@H](O)[C@@H]2C[C@@H]2[C@H]1n1cnc2c(NC(C3CC3)C3CC3)nc(Cl)nc21 [MRS5474, reference compound] | – | – | – | – | – | – | – | – | average immobility times versus the control group of mice ([20]; 1 hour after administration): lower than the average immobility times exhibited by the control group of mice; average immobility times versus mice treated with fluoxetine ([20]; fluoxetine 10 mg/kg): approximately twice longer; initial amount present in simulated gastric fluid [21]: 51% |
